Tests used:
Assay type in all cases: in vivo
[1] = tested on: Digitaria ciliaris; assay: Test Example 3: herbicidal effect test by soil application in upland field; conditions: Digitaria ciliaris, 120 g per 10 ares, sprayed one day after sowing, 14 days after application, read-out: weed inhibition rate
Experimental: (§1) The present test was conducted in duplicate for each chemical concentration group, and the weed inhibition rate (%) was determined 14 days after chemical application using the following formula (Math. 1). [formula]
(§2) Pots with an area of 36 cm^2 were filled with upland soil (alluvial loam), twenty seeds each of weeds of Digitaria ciliaris, Echinochloa crus-galli, Chenopodium album, and Amaranthus viridis were uniformly mixed with the top 1 cm layer of soil and the surface was lightly pressed down. One day after sowing, an emulsifiable concentrate prepared according to Formulation Example 5 using the compound shown below was diluted with water, and the diluted solution was sprayed onto the soil surface at a rate of 100 liters per 10 ares. The amount of the active ingredient to be applied was equivalent to 120 g per 10 ares. Fourteen days after chemical application, the herbicidal effect was evaluated according to the same criteria as in Test Example 1.

[2] = tested on: Echinochloa crus-galli; assay: as above; conditions: Echinochloa crus-galli, 120 g per 10 ares, sprayed one day after sowing, 14 days after application, read-out: weed inhibition rate
Experimental: as §1, §2

[3] = tested on: Digitaria ciliaris; assay: Test Example 4: herbicidal effect test by stem and leaf treatment in upland field; conditions: Digitaria ciliaris; 120 g per 10 ares; sprayed seven days after sowing, upland soil; 14 days after application; read-out: weed inhibition rate
Experimental: as §1
as §2, with “crus-galli,” for “crus-galli, Chenopodium album,”, “Seven days” for “One day”

[4] = tested on: Echinochloa crus-galli var. formosensis; assay: Test Example 1: herbicidal effect test by soil application in paddy rice; conditions: Echinochloa crus-galli, soil, 336 h; 120 g active ingredient per 10 ares; applied immediately after sowing, flooded pots; 14 days after application; read-out: weed inhibition rate
Experimental: Wagner pots with an area of […] were filled with paddy soil, followed by addition of water and incorporation of chemical fertilizer (N:P:K = 16:16:16), after which puddling was performed. After that, seeds of Echinochloa crus-galli var. formosensis, broad-leaved weeds ([…] Monochoria vaginalis), and Scirpus juncoides were sown at a depth of 0 cm to 1 cm, 30 seeds each. Immediately after sowing, the pots were flooded and a water depth of approximately 3 cm was maintained. Subsequent management was conducted in a glass greenhouse. Immediately thereafter, an emulsifiable concentrate prepared according to Formulation Example 5 using the compound shown below was diluted with water, and a specified amount of the diluted solution was applied by dropper. The amount of the active ingredient to be applied was equivalent to 120 g per 10 ares.

[5] = tested on: Echinochloa crus-galli; assay: Test Example 4: herbicidal effect test by stem and leaf treatment in upland field; conditions: Echinochloa crus-galli; 120 g per 10 ares; sprayed seven days after sowing, upland soil; 14 days after application; read-out: weed inhibition rate
[6] = tested on: Echinochloa crus-galli var. formosensis; assay: Test Example 2: herbicidal effect test by application during growth period of paddy rice; conditions: Echinochloa crus-galli; 120 g per 10 ares; applied seven days after sowing, flooded pots; 14 days after application; read-out: weed inhibition rate
Experimental: as §1
Wagner pots with an area of […] were filled with paddy soil, followed by addition of water and incorporation of chemical fertilizer (N:P:K = 16:16:16), after which puddling was performed. After that, seeds of Echinochloa crus-galli var. formosensis, broad-leaved weeds (Monochoria vaginalis), and Scirpus juncoides were sown at a depth of 0 cm to 1 cm, 30 seeds each. Immediately after sowing, the pots were flooded and a water depth of approximately 3 cm was maintained. Subsequent management was conducted in a glass greenhouse. Seven days after sowing, an emulsifiable concentrate prepared according to Formulation Example 5 using the compound shown below was diluted with water, and a specified amount of the diluted solution was applied by dropper. The amount of the active ingredient to be applied was equivalent to 120 g per 10 ares. The test was conducted in duplicate for each chemical concentration group, and the herbicidal effect was evaluated 14 days after chemical application using the same criteria as in Test Example 1.

Cc1cccc(C)c1CO[C@H]1C[C@@]2(C(C)C)O[C@]1(C)C[C@H]2I [1-1118, (1R,2S,4S,5R)-2-[(2,6-dimethylphenyl)methoxy]-5-iodo-1-methyl-4-isopropyl-7-oxabicyclo[2.2.1]heptane]
≥ 80%: inhibition at 1200 g/ha [1] | inhibition at 1200 g/ha [2] | inhibition at 1200 g/ha [3] | pest or weed control at 1200 g/ha [4] | inhibition at 1200 g/ha [5] | inhibition at 1200 g/ha [6]

CC(C)[C@@]12C[C@H](OCc3c(Cl)cccc3Cl)[C@@](C)(C[C@H]1I)O2 [1-1120, (1R,2S,4S,5R)-2-[(2,6-dichlorophenyl)methoxy]-5-iodo-1-methyl-4-isopropyl-7-oxabicyclo[2.2.1]heptane]
≥ 80%: inhibition at 1200 g/ha [1] | inhibition at 1200 g/ha [2] | inhibition at 1200 g/ha [3] | pest or weed control at 1200 g/ha [4] | inhibition at 1200 g/ha [5] | inhibition at 1200 g/ha [6]

CC(C)[C@@]12C[C@H](OCc3c(F)cccc3Cl)[C@@](C)(C[C@H]1I)O2 [1-1121, (1R,2S,4S,5R)-2-[(2-chloro-6-fluorophenyl)methoxy]-5-iodo-1-methyl-4-isopropyl-7-oxabicyclo[2.2.1]heptane]
≥ 80%: inhibition at 1200 g/ha [1] | inhibition at 1200 g/ha [2] | inhibition at 1200 g/ha [3] | pest or weed control at 1200 g/ha [4] | inhibition at 1200 g/ha [5] | inhibition at 1200 g/ha [6]

Cc1cccc(COC2CC3(C(C)C)OC2(C)CC3Br)c1 (stereo not drawn) [1-1344, 5-bromo-1-methyl-2-[(3-methylphenyl)methoxy]-4-isopropyl-7-oxabicyclo[2.2.1]heptane]
≥ 80%: inhibition at 1200 g/ha [1] | inhibition at 1200 g/ha [2] | inhibition at 1200 g/ha [3] | pest or weed control at 1200 g/ha [4] | inhibition at 1200 g/ha [5] | inhibition at 1200 g/ha [6]

Cc1ccc(COC2CC3(C(C)C)OC2(C)CC3Br)cc1 (stereo not drawn) [1-1345, 5-bromo-1-methyl-2-[(4-methylphenyl)methoxy]-4-isopropyl-7-oxabicyclo[2.2.1]heptane]
≥ 80%: inhibition at 1200 g/ha [1] | inhibition at 1200 g/ha [2] | inhibition at 1200 g/ha [3] | pest or weed control at 1200 g/ha [4] | inhibition at 1200 g/ha [5] | inhibition at 1200 g/ha [6]

CCc1ccccc1COC1CC2(C(C)C)OC1(C)CC2Br (stereo not drawn) [1-1346, 5-bromo-2-[(2-ethylphenyl)methoxy]-1-methyl-4-isopropyl-7-oxabicyclo[2.2.1]heptane]
≥ 80%: inhibition at 1200 g/ha [1] | inhibition at 1200 g/ha [2] | inhibition at 1200 g/ha [3] | pest or weed control at 1200 g/ha [4] | inhibition at 1200 g/ha [5] | inhibition at 1200 g/ha [6]

COc1cccc(COC2CC3(C(C)C)OC2(C)CC3Br)c1 (stereo not drawn) [1-1350, 5-bromo-2-[(3-methoxyphenyl)methoxy]-1-methyl-4-isopropyl-7-oxabicyclo[2.2.1]heptane]
≥ 80%: inhibition at 1200 g/ha [1] | inhibition at 1200 g/ha [2] | inhibition at 1200 g/ha [3] | pest or weed control at 1200 g/ha [4] | inhibition at 1200 g/ha [5] | inhibition at 1200 g/ha [6]

COc1ccc(COC2CC3(C(C)C)OC2(C)CC3Br)cc1 (stereo not drawn) [1-1351, 5-bromo-2-[(4-methoxyphenyl)methoxy]-1-methyl-4-isopropyl-7-oxabicyclo[2.2.1]heptane]
≥ 80%: inhibition at 1200 g/ha [1] | inhibition at 1200 g/ha [2] | inhibition at 1200 g/ha [3] | pest or weed control at 1200 g/ha [4] | inhibition at 1200 g/ha [5] | inhibition at 1200 g/ha [6]

CC(C)C12CC(OCc3ccccc3OC(F)(F)F)C(C)(CC1Br)O2 (stereo not drawn) [1-1352, 5-bromo-1-methyl-4-isopropyl-2-[[2-(trifluoromethoxy)phenyl]methoxy]-7-oxabicyclo[2.2.1]heptane]
≥ 80%: inhibition at 1200 g/ha [1] | inhibition at 1200 g/ha [2] | inhibition at 1200 g/ha [3] | pest or weed control at 1200 g/ha [4] | inhibition at 1200 g/ha [5] | inhibition at 1200 g/ha [6]

CC(C)C12CC(OCc3cccc(F)c3)C(C)(CC1Br)O2 (stereo not drawn) [1-1356, 5-bromo-2-[(3-fluorophenyl)methoxy]-1-methyl-4-isopropyl-7-oxabicyclo[2.2.1]heptane]
≥ 80%: inhibition at 1200 g/ha [1] | inhibition at 1200 g/ha [2] | inhibition at 1200 g/ha [3] | pest or weed control at 1200 g/ha [4] | inhibition at 1200 g/ha [5] | inhibition at 1200 g/ha [6]

CC(C)C12CC(OCc3cccc(Cl)c3)C(C)(CC1Br)O2 (stereo not drawn) [1-1359, 5-bromo-2-[(3-chlorophenyl)methoxy]-1-methyl-4-isopropyl-7-oxabicyclo[2.2.1]heptane]
≥ 80%: inhibition at 1200 g/ha [1] | inhibition at 1200 g/ha [2] | inhibition at 1200 g/ha [3] | pest or weed control at 1200 g/ha [4] | inhibition at 1200 g/ha [5] | inhibition at 1200 g/ha [6]

CC(C)C12CC(OCc3ccc(Cl)cc3)C(C)(CC1Br)O2 (stereo not drawn) [1-1360, 5-bromo-2-[(4-chlorophenyl)methoxy]-1-methyl-4-isopropyl-7-oxabicyclo[2.2.1]heptane]
≥ 80%: inhibition at 1200 g/ha [1] | inhibition at 1200 g/ha [2] | inhibition at 1200 g/ha [3] | pest or weed control at 1200 g/ha [4] | inhibition at 1200 g/ha [5] | inhibition at 1200 g/ha [6]

CC(C)C12CC(OCc3cccc(Br)c3)C(C)(CC1Br)O2 (stereo not drawn) [1-1362, 5-bromo-2-[(3-bromophenyl)methoxy]-1-methyl-4-isopropyl-7-oxabicyclo[2.2.1]heptane]
≥ 80%: inhibition at 1200 g/ha [1] | inhibition at 1200 g/ha [2] | inhibition at 1200 g/ha [3] | pest or weed control at 1200 g/ha [4] | inhibition at 1200 g/ha [5] | inhibition at 1200 g/ha [6]

CC(C)C12CC(OCc3ccc(Br)cc3)C(C)(CC1Br)O2 (stereo not drawn) [1-1363, 5-bromo-2-[(4-bromophenyl)methoxy]-1-methyl-4-isopropyl-7-oxabicyclo[2.2.1]heptane]
≥ 80%: inhibition at 1200 g/ha [1] | inhibition at 1200 g/ha [2] | inhibition at 1200 g/ha [3] | pest or weed control at 1200 g/ha [4] | inhibition at 1200 g/ha [5] | inhibition at 1200 g/ha [6]

CC(C)C12CC(OCc3ccccc3I)C(C)(CC1Br)O2 (stereo not drawn) [1-1364, 5-bromo-2-[(2-iodophenyl)methoxy]-1-methyl-4-isopropyl-7-oxabicyclo[2.2.1]heptane]
≥ 80%: inhibition at 1200 g/ha [1] | inhibition at 1200 g/ha [2] | inhibition at 1200 g/ha [3] | pest or weed control at 1200 g/ha [4] | inhibition at 1200 g/ha [5] | inhibition at 1200 g/ha [6]

From patent EP4707280A1, “1,4-CINEOLE DERIVATIVE AND INTERMEDIATE THEREOF, HERBICIDE CONTAINING SAID DERIVATIVE AS ACTIVE INGREDIENT, METHOD FOR USING HERBICIDE, AND METHOD FOR PREPARING AGROCHEMICAL COMPOSITION” (HOKKO CHEMICAL INDUSTRY CO., LTD., priority 2023, dated 2024)
